These results are taken from patent publication US20070014825A1, “Ant bait attractive to many species of ants and useful in their rapid control” (priority 2005, published 2007).

One assay relates to ants. Put plainly: Repulsion or loss of attractant activity of bait additives to ants. Particulars: trace amounts added to ant baits. It is filed as in vivo.
The next assay deals with Carpenter Ant. Put plainly: Liquid carpenter ant bait placed on ant trail: distance traveled after ingestion and kill. Format: in vivo, Carpenter Ant (Genus Componatus). As to the method: The above liquid carpenter ant bait was not formulated with a fragrance or dye, although both these additives may can be added. Soak the liquid ant bait in an absorbent wick, cotton ball or tissue and place on ant trail.
A carpenter ant ingested bait 7a for approximately 20 minutes, walked approximately 1.5-2 feet and was killed. Another carpenter ant ingested bait 7b for approximately 20 minutes, walked 20-30 feet, disappearing in the brush.
The ant baits of the above examples were tested in their natural environment where the particular ants were found. The baits were distributed in small amounts in the areas where the ants were seen to be active. All of the baits were readily accepted by the various ants. Gradually in all of the examples the numbers of ants in the treated areas was reduced to the point that none could be found.

On to `O=c1[nH]sc2ccccc12` [1,2-benzisothiazolin-3-one], for which the “Loss in attractant activity of ant bait” value with ants was “Little or no loss in attractant activity”.

Consider `COP(=O)(NC(C)=O)SC` (stereo not drawn) [acephate], for which, in the assay with Carpenter Ant (Level of toxicant in Bait 0.2%), the “Time after Bait Ingestion at which ant disappeared (kill not observed)” value was “after 35-40 minutes” and the “Time of Ingestion of Bait by Ant” value is “˜20 minutes”. The “Distance Traveled” value with Carpenter Ant (Level of toxicant in Bait 0.2%, ant disappeared) is 20-30 feet. In addition, in the assay on Carpenter Ant (Level of toxicant in Bait 0.2%, entire nest killed), the “Nest Killed” value was “Yes”. In addition, in the assay on Carpenter Ant (Level of toxicant in Bait 1.2%), the “Distance Traveled” value is listed as 1.5-2 feet, the “Nest Killed” value is recorded as “No”, the “Time Ant Killed after Bait Ingestion” value was “˜22-23 minutes” and the “Time of Ingestion of Bait by Ant” value was “˜20 minutes”.
